For experiment [1], the target named is T1, Cholesteryl ester transfer protein (Homo sapiens, UniProt P11597).
T1 sequence (P11597 whole entry): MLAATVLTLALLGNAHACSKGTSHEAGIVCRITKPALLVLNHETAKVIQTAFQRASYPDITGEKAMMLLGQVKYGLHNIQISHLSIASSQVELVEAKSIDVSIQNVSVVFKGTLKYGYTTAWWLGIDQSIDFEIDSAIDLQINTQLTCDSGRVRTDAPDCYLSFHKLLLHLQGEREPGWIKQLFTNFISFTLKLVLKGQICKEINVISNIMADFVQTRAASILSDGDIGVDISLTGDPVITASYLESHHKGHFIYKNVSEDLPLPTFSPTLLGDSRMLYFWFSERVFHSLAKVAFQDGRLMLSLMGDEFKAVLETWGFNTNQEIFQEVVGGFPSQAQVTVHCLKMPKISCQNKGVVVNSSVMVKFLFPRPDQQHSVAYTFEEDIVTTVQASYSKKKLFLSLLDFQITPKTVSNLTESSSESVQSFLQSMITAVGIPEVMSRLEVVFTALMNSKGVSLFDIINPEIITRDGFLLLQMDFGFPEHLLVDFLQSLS
Nature of the experiment: Inhibition of CETP.

Experiment [2] addresses Phospholipid transfer protein (Homo sapiens, UniProt P55058). The experiment in a line: Inhibition of PLTP.

Structures are written as SMILES.

Phospholipid transfer protein, sequence (P55058 whole entry): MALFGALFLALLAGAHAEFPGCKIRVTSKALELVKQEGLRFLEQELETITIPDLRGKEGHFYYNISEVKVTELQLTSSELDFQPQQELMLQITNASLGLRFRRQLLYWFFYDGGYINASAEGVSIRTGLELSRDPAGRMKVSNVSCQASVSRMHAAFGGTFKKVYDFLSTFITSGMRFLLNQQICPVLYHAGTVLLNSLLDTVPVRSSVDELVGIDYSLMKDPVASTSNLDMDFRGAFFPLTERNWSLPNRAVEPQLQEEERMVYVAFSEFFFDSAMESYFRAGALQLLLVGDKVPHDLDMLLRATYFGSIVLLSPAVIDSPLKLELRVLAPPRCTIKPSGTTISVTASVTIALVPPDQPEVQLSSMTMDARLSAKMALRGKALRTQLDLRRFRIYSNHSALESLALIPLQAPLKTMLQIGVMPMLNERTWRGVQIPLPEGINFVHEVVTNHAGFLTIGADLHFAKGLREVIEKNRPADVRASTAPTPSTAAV

Broadly, the IC50 is the concentration that inhibits the measured activity by half. On to `COc1cc(C(=O)Nc2nc(-c3ccccc3)c(-c3ccccc3)[se]2)cc(OC)c1OC`, for which the IC50 result in experiment [1] and in experiment [2] was “Not Active” each time.

With `COc1ccc(-c2nc(NC(=O)c3ccc(OC)c(OC)c3)[se]c2Cc2ccccc2)cc1`, the values for the IC50 in experiment [1] (read-out: IC50) and in experiment [2] (read-out: IC50) were 30 µM and 80 µM, respectively.

With `CCCCc1[se]c(NC(=O)c2cc(O)c(O)c(O)c2)nc1-c1ccc(O)cc1`, the IC50 entry in experiment [1] is “Not Active”; in experiment [2] (read-out: IC50), 10 µM.

In the case of `COc1ccc(-c2nc(NC(=O)c3cc(OC)c(OC)c(OC)c3)[se]c2Cc2ccccc2)cc1`, the IC50 in experiment [1] (read-out: IC50) was 25 µM; in experiment [2], “Not Active”.

Take `CCCCc1[se]c(NC(=O)c2ccc(OC)c(OC)c2)nc1-c1ccc(OC)cc1`: the IC50 entry in experiment [1] is “Not Active”; in experiment [2] (read-out: IC50), 80 µM.

On to `CCCCCC(=O)Nc1nc(-c2ccc(O)cc2)c(Cc2ccccc2)[se]1`, for which the IC50 in experiment [1] (read-out: IC50) is 25 µM; in experiment [2] (read-out: IC50), 60 µM.

In the case of `O=C(Nc1nc(-c2ccc(O)cc2)c(Cc2ccccc2)[se]1)c1cc(O)c(O)c(O)c1`, the figures for the IC50 result in experiment [1] and in experiment [2] (read-out: IC50) were “Not Active” and 32 µM, respectively.

For `COc1ccc(-c2nc(NC(=O)c3ccc([N+](=O)[O-])cc3)[se]c2Cc2ccccc2)cc1`, the figures for the IC50 result in experiment [1] and in experiment [2] (read-out: IC50) were “Not Active” and 85 µM, respectively.

Consider `CCCCc1[se]c(NC(=O)c2cc(OC)c(OC)c(OC)c2)nc1-c1ccc(OC)cc1`, for which the IC50 entry in experiment [1] is “Not Active”; in experiment [2] (read-out: IC50) it was 150 µM.

As to `O=C(Nc1nc(-c2ccccc2)c(-c2ccccc2)[se]1)c1cc(F)c(F)c(F)c1`, the IC50 result in experiment [1] and in experiment [2] was “Not Active” in each case.

As for `CCc1[se]c(NC(=O)c2cc(OC)c(OC)c(OC)c2)nc1-c1ccc(OC)cc1`, the IC50 result in experiment [1] and in experiment [2] was “Not Active” in each case.

On to `CCc1[se]c(NC(=O)c2ccc(OC)c(OC)c2)nc1-c1ccc(OC)cc1`, for which the half-maximal inhibitory concentration (IC50) entry in experiment [1] is “Not Active”; in experiment [2] (read-out: IC50) it was 100 µM.

As to `O=C(Nc1nc(-c2ccc(O)cc2)c(Cc2ccccc2)[se]1)c1ccc(O)c(O)c1`, the results for the IC50 result in experiment [1] and in experiment [2] (read-out: IC50) were “Not Active” and 35 µM, respectively.

Take `O=C(Nc1nc(-c2ccccc2)c(-c2ccccc2)[se]1)c1ccccc1`: the IC50 entry in experiment [1] and in experiment [2] was “Not Active” in each case.

`O=C(Nc1nc(-c2ccccc2)c(-c2ccccc2)[se]1)c1ccc(O)c(O)c1`: the IC50 result was “Not Active” in experiment [1] and 8 µM in experiment [2] (read-out: IC50).

Regarding `CCc1[se]c(NC(=O)c2cc(O)c(O)c(O)c2)nc1-c1ccc(O)cc1`, the results for the half-inhibitory concentration (IC50) result in experiment [1] and in experiment [2] (read-out: IC50) were “Not Active” and 32 µM, respectively.

As for `CCc1[se]c(NC(=O)c2ccc(Cl)cc2)nc1-c1ccc(O)cc1`, the IC50 result in experiment [1] is “Not Active”; in experiment [2] (read-out: IC50), 60 µM.

For the compound `CCc1[se]c(NC(=O)c2ccc(Cl)cc2)nc1-c1ccc(OC)cc1`, the IC50 entry in experiment [1] and in experiment [2] was “Not Active” in each case.

Regarding `CCCCc1[se]c(NC(=O)c2ccc(Cl)cc2)nc1-c1ccc(O)cc1`, the IC50 entry is “Not Active” in experiment [1] and 60 µM in experiment [2] (read-out: IC50).

Regarding `O=C(Nc1nc(-c2ccccc2)c(-c2ccccc2)[se]1)c1cc(O)c(O)c(O)c1`, the IC50 result is “Not Active” in experiment [1] and 25 µM in experiment [2] (read-out: IC50).

In the case of `CCCCc1[se]c(NC(C)=O)nc1-c1ccc(O)cc1`, the figures for the IC50 entry in experiment [1] and in experiment [2] (read-out: IC50) were “Not Active” and 60 µM, respectively.
